Molecules are shown by their SMILES. Numbers after ± are expanded uncertainties.

The conditions of data set [1]: Crystal; DSC.
The nature of data set [2]: Molar enthalpy of transition or fusion. To be noted: Crystal; DSC.

For `O=c1[nH]cc(F)c(=O)[nH]1` [5-fluoro-2,4(1H,3H)-pyrimidinedione], the Triple point temperature in data set [1] is reported as 555.66 ± 0.88 K. In addition, the “Molar enthalpy of transition or fusion” value in data set [2] turned out to be 6.88 ± 0.177 kcal/mol.

Source of the values: the NIST ThermoML archive (doi:10.1021/acs.jced.8b00425).
